Earlier results, collected in patent US7691423B2, “Method of treating inflammation disorders using extracts of passion fruit” (priority 2005, dated 2010).

Columns and labels:
[1] = test system: spontaneously hypertensive rat (SHR) cells; conditions: SHR cells in vitro

SMILES	Large dose acetylcholine-induced vascular contraction (vascular contraction)	iNOS mRNA and the production of nitric oxide (iNOS)	NOLA-dependent spontaneous aortic ring contraction [1]
O=c1c(O)c(-c2ccc(O)c(O)c2)oc2cc(O)cc(O)c12 [quercetin]	inhibited	inhibit	inhibit
O=c1c(O)c(-c2ccc(O)cc2)oc2cc(O)cc(O)c12 [kaempferol]	inhibited	–	inhibit
O=c1ccc2cc(O)c(O)cc2o1 [esculetin]	inhibited	–	–
